Assay results from patent US12295937B2, “Psychoactive medicines and their use for treating psychiatric and neurological conditions and disorders” (Transcend Therapeutics, Inc., priority 2021, dated 2025).
Read-outs that look alike come from different tables or passages of the source.

What was measured:
168 GPCRs [1] = molecular target: T1, 168 GPCRs (Homo sapiens, UniProt P35408); experiment: β-arrestin GPCR screen (PathHunter / GPCRmax), agonist mode; type: cell-based; conditions: PTGER4, 1 uM
T1 construct: host or cells: PathHunter cell lines
T1 sequence (P35408 whole entry): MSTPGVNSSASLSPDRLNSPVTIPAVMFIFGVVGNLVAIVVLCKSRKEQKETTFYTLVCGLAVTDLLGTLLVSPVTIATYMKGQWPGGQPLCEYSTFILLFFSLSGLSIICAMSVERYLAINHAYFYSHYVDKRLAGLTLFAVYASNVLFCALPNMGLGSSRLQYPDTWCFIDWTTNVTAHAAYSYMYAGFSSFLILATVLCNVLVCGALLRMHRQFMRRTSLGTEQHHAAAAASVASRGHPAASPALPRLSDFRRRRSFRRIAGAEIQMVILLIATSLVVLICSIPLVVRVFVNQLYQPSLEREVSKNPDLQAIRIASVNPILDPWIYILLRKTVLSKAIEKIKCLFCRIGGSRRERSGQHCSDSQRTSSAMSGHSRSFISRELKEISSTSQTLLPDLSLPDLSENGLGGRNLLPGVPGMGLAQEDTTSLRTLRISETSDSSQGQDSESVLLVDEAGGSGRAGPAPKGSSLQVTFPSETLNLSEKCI
Protocol: (§1) For agonist determination, cells were incubated with sample to induce response. […] Vehicle concentration was 1%.

168 GPCRs [2] = molecular target: T2, 168 GPCRs (Homo sapiens, UniProt P49238); experiment: as above; type: cell-based; conditions: CX3CR1, 1 uM
T2 construct: host or cells: PathHunter cell lines
T2 sequence (P49238 whole entry): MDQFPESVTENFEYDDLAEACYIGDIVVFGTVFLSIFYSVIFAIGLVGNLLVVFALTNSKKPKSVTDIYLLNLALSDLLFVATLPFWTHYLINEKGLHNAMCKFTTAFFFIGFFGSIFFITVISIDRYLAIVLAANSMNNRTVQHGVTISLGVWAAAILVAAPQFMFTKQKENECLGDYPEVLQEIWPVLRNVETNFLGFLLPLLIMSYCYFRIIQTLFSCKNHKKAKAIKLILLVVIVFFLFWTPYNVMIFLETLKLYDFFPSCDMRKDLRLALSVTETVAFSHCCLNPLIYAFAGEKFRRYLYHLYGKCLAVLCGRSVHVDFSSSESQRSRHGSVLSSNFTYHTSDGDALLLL
Protocol: as §1

168 GPCRs [3] = molecular target: T3, 168 GPCRs (Homo sapiens, UniProt P32239); experiment: as above; type: cell-based; conditions: CCKBR, 1 uM
T3 construct: host or cells: PathHunter cell lines
T3 sequence (P32239 whole entry): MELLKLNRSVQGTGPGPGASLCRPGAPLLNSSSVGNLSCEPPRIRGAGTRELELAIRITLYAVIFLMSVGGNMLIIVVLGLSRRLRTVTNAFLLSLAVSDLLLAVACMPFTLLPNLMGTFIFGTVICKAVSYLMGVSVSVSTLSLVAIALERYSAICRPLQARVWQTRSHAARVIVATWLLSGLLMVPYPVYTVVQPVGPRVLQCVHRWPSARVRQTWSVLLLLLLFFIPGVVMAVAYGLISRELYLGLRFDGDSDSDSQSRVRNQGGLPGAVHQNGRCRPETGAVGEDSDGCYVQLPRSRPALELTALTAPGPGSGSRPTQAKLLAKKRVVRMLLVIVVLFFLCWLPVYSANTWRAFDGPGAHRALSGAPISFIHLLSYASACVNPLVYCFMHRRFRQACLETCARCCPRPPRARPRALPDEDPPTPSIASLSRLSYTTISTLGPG
Protocol: as §1

168 GPCRs [4] = molecular target: T4, 168 GPCRs (Homo sapiens, UniProt P34998); experiment: as above; type: cell-based; conditions: CRHR1, 1 uM
T4 construct: host or cells: PathHunter cell lines
T4 sequence (P34998 24-415): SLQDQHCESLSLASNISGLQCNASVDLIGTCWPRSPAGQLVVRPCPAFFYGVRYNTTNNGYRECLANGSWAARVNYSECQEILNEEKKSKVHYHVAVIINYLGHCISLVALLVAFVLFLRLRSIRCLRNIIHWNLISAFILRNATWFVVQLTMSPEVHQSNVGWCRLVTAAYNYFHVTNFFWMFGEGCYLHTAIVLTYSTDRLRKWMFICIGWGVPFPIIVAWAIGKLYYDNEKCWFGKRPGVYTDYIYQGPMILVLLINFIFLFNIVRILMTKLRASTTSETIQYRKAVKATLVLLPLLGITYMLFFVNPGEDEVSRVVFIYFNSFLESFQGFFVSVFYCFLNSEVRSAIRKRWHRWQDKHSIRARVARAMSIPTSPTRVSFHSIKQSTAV
Protocol: as §1

168 GPCRs [5] = molecular target: T5, 168 GPCRs (Homo sapiens, UniProt Q99788); experiment: as above; type: cell-based; conditions: CMKLR1, 1 uM
T5 construct: host or cells: PathHunter cell lines
T5 sequence (Q99788 whole entry): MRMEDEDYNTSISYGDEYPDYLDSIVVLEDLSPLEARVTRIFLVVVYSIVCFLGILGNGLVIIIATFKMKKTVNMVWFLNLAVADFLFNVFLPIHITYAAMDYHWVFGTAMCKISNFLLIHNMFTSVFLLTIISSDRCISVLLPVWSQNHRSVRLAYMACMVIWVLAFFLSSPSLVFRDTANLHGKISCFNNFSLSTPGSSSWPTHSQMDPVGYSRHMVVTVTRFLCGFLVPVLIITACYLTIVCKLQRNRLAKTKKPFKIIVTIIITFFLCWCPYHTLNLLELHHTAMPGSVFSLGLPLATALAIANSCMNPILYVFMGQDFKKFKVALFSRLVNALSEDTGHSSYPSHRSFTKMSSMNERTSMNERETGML
Protocol: as §1

168 GPCRs [6] = molecular target: T6, 168 GPCRs (Homo sapiens, UniProt P32249); experiment: as above; type: cell-based; conditions: EBI2, 1 uM
T6 construct: host or cells: PathHunter cell lines
T6 sequence (P32249 whole entry): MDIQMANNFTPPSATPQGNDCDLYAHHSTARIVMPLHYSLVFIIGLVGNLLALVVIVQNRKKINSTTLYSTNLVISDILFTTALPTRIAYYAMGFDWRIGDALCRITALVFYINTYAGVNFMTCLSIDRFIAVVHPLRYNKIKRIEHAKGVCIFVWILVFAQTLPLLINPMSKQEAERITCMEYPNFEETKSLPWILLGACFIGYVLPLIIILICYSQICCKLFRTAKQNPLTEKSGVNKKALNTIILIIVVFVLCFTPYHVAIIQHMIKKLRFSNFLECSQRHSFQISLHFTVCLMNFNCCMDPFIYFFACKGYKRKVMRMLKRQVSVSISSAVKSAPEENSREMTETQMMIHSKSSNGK
Protocol: as §1

168 GPCRs [7] = experiment: as above; type: cell-based; conditions: CCR, 10 uM
Protocol: as §1

168 GPCRs [8] = molecular target: 168 GPCRs (Homo sapiens, UniProt Q16602); experiment: as above; type: cell-based; design: host or cells: PathHunter cell lines; conditions: CALCRL-RAMP3, 1 uM
Chain of 168 GPCRs (Homo sapiens, UniProt Q16602) (Q16602 23-461): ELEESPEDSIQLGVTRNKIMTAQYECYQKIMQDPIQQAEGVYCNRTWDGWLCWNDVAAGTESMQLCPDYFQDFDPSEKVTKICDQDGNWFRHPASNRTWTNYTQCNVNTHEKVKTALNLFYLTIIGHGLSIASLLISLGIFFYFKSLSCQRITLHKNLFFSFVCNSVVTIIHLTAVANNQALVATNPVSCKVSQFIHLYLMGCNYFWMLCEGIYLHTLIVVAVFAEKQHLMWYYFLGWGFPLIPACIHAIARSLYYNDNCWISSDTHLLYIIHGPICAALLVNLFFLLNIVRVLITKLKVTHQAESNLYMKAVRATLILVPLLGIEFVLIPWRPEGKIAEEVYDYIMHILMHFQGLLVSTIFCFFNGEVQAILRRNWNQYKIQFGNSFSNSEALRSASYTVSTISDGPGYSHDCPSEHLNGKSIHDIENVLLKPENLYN
Protocol: as §1

[9] = molecular target: serotonin transporter (SERT) (Rattus norvegicus, UniProt P31652); experiment: [3H]5HT uptake saturation in rat brain synaptosomes with or without methylone; type: biochemical; conditions: Kd right shifted, no decrease in Bmax
Chain of serotonin transporter (SERT) (P31652 whole entry): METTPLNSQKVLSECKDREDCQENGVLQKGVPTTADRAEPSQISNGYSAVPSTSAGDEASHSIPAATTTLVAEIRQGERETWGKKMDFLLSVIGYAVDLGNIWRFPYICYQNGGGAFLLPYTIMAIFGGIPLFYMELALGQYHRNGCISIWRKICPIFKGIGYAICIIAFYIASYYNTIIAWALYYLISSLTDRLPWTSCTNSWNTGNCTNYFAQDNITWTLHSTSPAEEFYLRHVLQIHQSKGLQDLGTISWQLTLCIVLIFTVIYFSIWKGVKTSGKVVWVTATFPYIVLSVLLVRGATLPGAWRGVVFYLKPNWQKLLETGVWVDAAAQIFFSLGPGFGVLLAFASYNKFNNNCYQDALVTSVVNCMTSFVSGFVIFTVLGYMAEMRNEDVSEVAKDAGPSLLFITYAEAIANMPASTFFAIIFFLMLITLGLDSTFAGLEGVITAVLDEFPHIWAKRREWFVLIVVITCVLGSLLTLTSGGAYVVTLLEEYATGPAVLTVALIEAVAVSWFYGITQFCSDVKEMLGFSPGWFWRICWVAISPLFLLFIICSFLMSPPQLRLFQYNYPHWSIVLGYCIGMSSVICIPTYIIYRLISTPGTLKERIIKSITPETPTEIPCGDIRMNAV

[10] = Rat plasma pharmacokinetics by administration route; type: in vivo; conditions: male, SD
Description: Plasma was collected 0.25, 0.5, 1-, 2-, 4-, and 8-hours post-dose.

[11] = cited from earlier work
[12] = Reserpine-induced fibromyalgia model, vonFrey test; type: in vivo, rat; conditions: 15 mg/kg IP, 30 min before vonFrey test, day 4
Protocol: In this Example, male Sprague Dawley rats are tested in a behavioral model of FMA based on the protocol from Nakagura et al. (2009) Pain 146:26. This model uses three daily doses of reserpine (1 mg/kg, SC) or 0.5% acetic acid vehicle to reduce pain thresholds (i.e., increase pain perception) in the Von Frey Test (vFT, procedure outlined below).
Von Frey Test (vFT) procedure: Increasing pain thresholds in this test are consistent with a reduction in pain perception. Prior to the start of dosing, rats are tested for their baseline mechanical pain threshold. For von Frey measurements, animals are placed into wire bottom cubicles with opaque Plexiglas walls, allowing access to the underside of their paws. Animals are habituated to this environment for at least 30 minutes before the start of the von Frey filament application. Static allodynia is measured using Semmes-Weinstein von Frey filaments (Stoelting, Wood Dale, IL). Mechanical allodynia is tested by touching the plantar surface of the animals' left and right hind paws with von Frey filaments which deliver a calibrated amount of force. Each von Frey filament is presented perpendicularly to the plantar surface for approximately 6 seconds of constant application in either ascending or descending strength in a modified up-and-down method (Chaplan et al. (1994) J Neurosci. Meth. 53:55). Stimulation is presented at intervals of several seconds, allowing for apparent resolution of any behavioral responses to previous stimuli. A positive response is noted if the paw is sharply withdrawn. Flinching immediately upon removal of the hair is also considered a positive response. Ambulation is considered an ambiguous response, and, in such cases, the stimulus is repeated.
VonFrey measurements: Animals were placed into wire bottom cubicles with opaque Plexiglas walls, allowing access to the underside of their paws. […] Static allodynia was measured using Semmes-Weinstein von Frey filaments (Stoelting, Wood Dale, IL). […] The average hindpaw thresholds were determined 60-min post-injection. […]

Q: Which “% Activity” value (168 GPCRs [1]) does the source give for `CNC(C)C(=O)c1ccc2c(c1)OCO2` (stereo not shown) [Methylone, 3,4-methylenedioxy-N-methylcathinone] here?
A: The value was 2.8%.

Q: And the “% Activity” value (168 GPCRs [2])?
A: Its value is 0%.

Q: What about the “% Activity” value (168 GPCRs [3]) of the same compound?
A: The value was −1%.

Q: And the “% Activity” value (168 GPCRs [4])?
A: Its value is 1.4%.

Q: What about the “% Activity” value (168 GPCRs [5]) of the same compound?
A: The value was −0.2%.

Q: What about the “% Activity” value (168 GPCRs [6]) of the same compound?
A: Its value is 0.5%.

Q: What about the “% Activity” value (168 GPCRs [7]) of the same compound?
A: The value was 3.6%.

Q: What about the “% Activity” value (168 GPCRs [8]) of the same compound?
A: The value was −2.2%.

Q: And the “Type of interaction at the SERT” value [9]?
A: The value was “competitive”.

Q: What about the AUC(0-inf) ([10]; IM 15 mg/kg) of the same compound?
A: The AUC(0-inf) was 4610 ng·h/mL.

Q: What about the Cmax ([10]; IM 15 mg/kg) of the same compound?
A: Its Cmax is 5400 ng/mL.

Q: What about the half-life ([10]; IM 15 mg/kg) of the same compound?
A: The half-life was 44.4 min.

Q: And the AUC(0-inf) ([10]; IM 20 mg/kg)?
A: Its AUC(0-inf) is 6370 ng·h/mL.

Q: What about the Cmax ([10]; IM 20 mg/kg) of the same compound?
A: The Cmax was 5920 ng/mL.

Q: And the half-life ([10]; IM 20 mg/kg)?
A: The half-life was 42 min.

Q: And the AUC(0-inf) ([10]; IP 15 mg/kg)?
A: The AUC(0-inf) was 2590 ng·h/mL.

Q: And the Cmax ([10]; IP 15 mg/kg)?
A: The Cmax was 1250 ng/mL.

Q: And the half-life ([10]; IP 15 mg/kg)?
A: The half-life was 56.1 min.

Q: What about the AUC(0-inf) ([10]; PO 15 mg/kg) of the same compound?
A: The AUC(0-inf) was 2290 ng·h/mL.

Q: What about the Cmax ([10]; PO 15 mg/kg) of the same compound?
A: Its Cmax is 552 ng/mL.

Q: And the half-life ([10]; PO 15 mg/kg)?
A: The half-life was 136 min.

Q: And the AUC(0-inf) ([10]; SC 15 mg/kg)?
A: The AUC(0-inf) was 4330 ng·h/mL.

Q: And the Cmax ([10]; SC 15 mg/kg)?
A: Its Cmax is 3650 ng/mL.

Q: And the half-life ([10]; SC 15 mg/kg)?
A: Its half-life is 49.2 min.

Q: And the AUC(0-inf) ([10]; SC 20 mg/kg)?
A: Its AUC(0-inf) is 5960 ng·h/mL.

Q: And the Cmax ([10]; SC 20 mg/kg)?
A: Its Cmax is 4320 ng/mL.

Q: And the half-life ([10]; SC 20 mg/kg)?
A: Its half-life is 52.2 min.

Q: And the “Cmax (geometric mean)” value ([11]; 50 mg oral, N = 3)?
A: The value was 151.2 ng/mL.

Q: What about the “AUC10hr (geometric mean)” value ([11]; 50 mg oral) of the same compound?
A: The value was 725 ng·h/mL.

Q: And the “AUC24hr (geometric mean)” value ([11]; 50 mg oral)?
A: Its value is 988 ng·h/mL.

Q: And the “AUCinf (geometric mean)” value ([11]; 50 mg oral)?
A: Its value is 1062 ng·h/mL.

Q: What about the “Half-life (geometric mean)” value ([11]; 50 mg oral) of the same compound?
A: The value was 372 min.

Q: And the “Tmax (median)” value ([11]; 50 mg oral)?
A: The value was 90 min.

Q: And the “Cmax (geometric mean)” value ([11]; 100 mg oral, N = 6)?
A: The value was 283.9 ng/mL.

Q: And the “AUC10hr (geometric mean)” value ([11]; 100 mg oral)?
A: Its value is 1554 ng·h/mL.

Q: And the “AUC24hr (geometric mean)” value ([11]; 100 mg oral)?
A: Its value is 2232 ng·h/mL.

Q: And the “AUCinf (geometric mean)” value ([11]; 100 mg oral)?
A: The value was 2410 ng·h/mL.

Q: What about the “Half-life (geometric mean)” value ([11]; 100 mg oral) of the same compound?
A: Its value is 360 min.

Q: And the “Tmax (median)” value ([11]; 100 mg oral)?
A: The value was 150 min.

Q: And the “Cmax (geometric mean)” value ([11]; 150 mg oral, N = 5)?
A: Its value is 340.2 ng/mL.

Q: What about the “AUC10hr (geometric mean)” value ([11]; 150 mg oral) of the same compound?
A: Its value is 2153 ng·h/mL.

Q: What about the “AUC24hr (geometric mean)” value ([11]; 150 mg oral) of the same compound?
A: Its value is 3165 ng·h/mL.

Q: What about the “AUCinf (geometric mean)” value ([11]; 150 mg oral) of the same compound?
A: The value was 3509 ng·h/mL.

Q: And the “Half-life (geometric mean)” value ([11]; 150 mg oral)?
A: Its value is 402 min.

Q: What about the “Cmax (geometric mean)” value ([11]; 200 mg oral, N = 7) of the same compound?
A: The value was 594.2 ng/mL.

Q: And the “AUC10hr (geometric mean)” value ([11]; 200 mg oral)?
A: Its value is 3261 ng·h/mL.

Q: And the “AUC24hr (geometric mean)” value ([11]; 200 mg oral)?
A: Its value is 4676 ng·h/mL.

Q: What about the “AUCinf (geometric mean)” value ([11]; 200 mg oral) of the same compound?
A: The value was 5116 ng·h/mL.

Q: What about the “Half-life (geometric mean)” value ([11]; 200 mg oral) of the same compound?
A: The value was 390 min.

Q: What about the “Time to reach maximum concentrations (Tmax)” value ([11]; oral 50 mg to 200 mg) of the same compound?
A: The value was 60 to 120 min.

Q: And the half-life ([11]; oral 50 mg to 200 mg)?
A: Its half-life is 360 to 420 min.

Q: What about the Paw withdrawal thresholds [12] of the same compound?
A: Its Paw withdrawal thresholds is “significantly increased paw withdrawal thresholds”.
